Where two headings read alike, the source gives them in different places.
Biological target: TNF-α converting enzyme (TACE) (Homo sapiens, UniProt P78536)
Assay: TACE inhibition (fluorescent peptidyl substrate)
Format: biochemical
Settings: Table 15
[1] = IC 50 nM (In Vitro Inhibition of TACE)
[2] = read-out: IC 50 nM (In Vitro Inhibition of TACE)

Chain of TNF-α converting enzyme (TACE) (P78536 215-824, species assumed): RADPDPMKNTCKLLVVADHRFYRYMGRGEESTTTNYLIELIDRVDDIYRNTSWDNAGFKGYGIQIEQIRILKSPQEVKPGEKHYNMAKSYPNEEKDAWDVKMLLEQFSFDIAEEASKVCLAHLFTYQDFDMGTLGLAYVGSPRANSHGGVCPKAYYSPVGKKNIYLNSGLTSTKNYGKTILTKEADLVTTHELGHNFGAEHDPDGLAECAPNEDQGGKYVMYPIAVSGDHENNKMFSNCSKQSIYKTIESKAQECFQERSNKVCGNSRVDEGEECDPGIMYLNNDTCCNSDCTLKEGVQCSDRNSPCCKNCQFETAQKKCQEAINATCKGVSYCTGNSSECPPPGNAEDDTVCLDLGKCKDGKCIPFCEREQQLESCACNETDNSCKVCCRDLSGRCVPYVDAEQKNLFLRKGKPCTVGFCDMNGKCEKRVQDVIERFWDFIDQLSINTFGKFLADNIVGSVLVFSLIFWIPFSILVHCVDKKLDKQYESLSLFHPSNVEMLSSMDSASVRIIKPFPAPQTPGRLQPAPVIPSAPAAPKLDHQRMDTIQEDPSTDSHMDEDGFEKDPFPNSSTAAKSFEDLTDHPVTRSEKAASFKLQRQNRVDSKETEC

Row | IC50 [1] [nM] | SMILES | also measured
1 | 4.55 | CC#CCOc1ccc(S(=O)(=O)N[C@H](CCCCNC(=O)Cc2ccc([N+](=O)[O-])cc2)C(=O)NO)cc1 [Example 362, (2R)-2-({[4-(But-2-ynyloxy)phenyl]sulfonyl}amino)-N-hydroxy-6-{[2-(4-nitrophenyl)acetyl]amino}hexanamide] | –
2 | 18.2 | CC#CCOc1ccc(S(=O)(=O)N[C@H](CCCNC(=O)N(C)c2ccccc2)C(=O)NO)cc1 [Example 374, (2R)-2-({[4-(but-2-ynyloxy)Phenyl]sulfonyl}amino)-N-hydroxy-5-{[(methylanilino)carbonyl]amino}pentanamide] | –
3 | 3.54 | CC#CCOc1ccc(S(=O)(=O)N[C@H](CCCNC(=O)c2ccc(OC)cc2)C(=O)NO)cc1 [Example 343, N-[(4R)-4-({[4-(But-2-ynyloxy)phenyl]sulfonyl}amino)-5-(hydroxyamino)-5-oxopentyl]-4-methoxybenzamide] | –
4 | 3.73 | CC#CCOc1ccc(S(=O)(=O)N[C@H](CCCNC(=O)c2c(C)noc2C)C(=O)NO)cc1 [Example 338, N-[(4R)-4-({[4-(But-2-ynyloxy)phenyl]sulfonyl)amino)-5-(hydroxyamino)-5-oxopentyl]-3,5-dimethylisoxazole-4-carboxamide] | –
5 | 402 ± 55 | CC#CCOc1ccc(S(=O)(=O)N[C@@H](CC2CCCCC2)C(=O)NO)cc1 [Example 71] | –
6 | 885 | CC#CCOc1ccc(S(=O)(=O)N[C@@H](CC(=O)OC2CCCCC2)C(=O)NO)cc1 [Example 68] | –
7 | 7.8 ± 0.4 | CC#CCOc1ccc(S(=O)(=O)N[C@H](Cc2ccc(O)cc2)C(=O)NO)cc1 [Example 84] | –
8 | 9.36 | CC#CCOc1ccc(S(=O)(=O)N[C@H](CCCCNC(=O)c2cc(C)oc2C)C(=O)NO)cc1 [Example 356, N-[(5R)-5-({[4-(But-2-ynyloxy)phenyl]sulfonyl}amino)-6-(hydroxyamino)-6-oxohexyl]-2,5-dimethyl-3-furamide] | –
9 | – | CC#CCOc1ccc(S(=O)(=O)NC(Cc2ccc(OCc3ccccc3)cc2)C(=O)NO)cc1 (centres unmarked) [Example 103] | % Inhibition at 1 uM (In Vitro Inhibition of TACE): 52.8%
10 | – | CC#CCOc1ccc(S(=O)(=O)NC(CCC(=O)O)C(=O)NO)cc1 (centres unmarked) [Example 86] | % Inhibition at 1 uM (In Vitro Inhibition of TACE): 37.5%
11 | 14.2 | CC#CCOc1ccc(S(=O)(=O)N[C@H](CCCNC(=O)NCC)C(=O)NO)cc1 [Example 369] | –
12 | – | CC#CCOc1ccc(S(=O)(=O)N2CC(OCc3ccccc3)CC2C(=O)NO)cc1 (centres unmarked) [Example 88] | % Inhibition at 1 uM (In Vitro Inhibition of TACE): 8.4%
13 | 3.58 | CC#CCOc1ccc(S(=O)(=O)N[C@H](CCCNC(=O)c2ccccc2)C(=O)NO)cc1 [Example 330, N-[(4R)-4-({[4-(But-2-ynyloxy)phenyl]sulfonyl}amino)-5-(hydroxyamino)-5-oxopentyl]benzamide] | –
14 | 2.4 | CC#CCOc1ccc(S(=O)(=O)N[C@H](CCCNC(=O)Nc2ccccc2)C(=O)NO)cc1 [Example 370, (2R)-5-[(Anilinocarbonyl)amino]-2-({[4-(but-2-ynyloxy)phenyl]sulfonyl}amino)-N-hydroxypentanamide] | –
15 | – | CC#CCOc1ccc(S(=O)(=O)NC(Cc2ccccc2)C(=O)NO)cc1 (centres unmarked) [Example 94] | % Inhibition at 1 uM (In Vitro Inhibition of TACE): 38.2%
16 | – | CC#CCOc1ccc(S(=O)(=O)NCCC(=O)NO)cc1 [Example 69] | % Inhibition at 1 uM (In Vitro Inhibition of TACE): 48.5%
17 | 6.5 | CC#CCOc1ccc(S(=O)(=O)N[C@H](Cc2ccc([N+](=O)[O-])cc2)C(=O)NO)cc1 [Example 317, (2R)-2-({[4-(But-2-ynyloxy)phenyl]sulfonyl}amino)-N-hydroxy-3-(4-nitrophenyl)propanamide] | –
18 | 29.5 | CC#CCOc1ccc(S(=O)(=O)N[C@H](CCCCN)C(=O)NO)cc1 [Example 308, (2R)-6-Amino-2-({[4-(but-2-ynyloxy)phenyl]sulfonyl}amino)-N-hydroxyhexanamide] | –
19 | 5.32 | CC#CCOc1ccc(S(=O)(=O)N[C@H](CCCNC(=O)c2ccc(Br)cc2)C(=O)NO)cc1 [Example 331, 4-Bromo-N-[(4R)-4-({[4-(but-2-ynyloxy)phenyl]sulfonyl}amino)-5-(hydroxyamino)-5-oxopentyl]benzamide] | –
20 | – | CC#CCOc1ccc(S(=O)(=O)NC(CC(N)=O)C(=O)NO)cc1 (centres unmarked) [Example 66] | % Inhibition at 1 uM (In Vitro Inhibition of TACE): 45.6%
21 | 4.7 | CC#CCOc1ccc(S(=O)(=O)N[C@H](CCCNC(=O)c2ccc(Cl)cc2)C(=O)NO)cc1 [Example 334, N-[(4R)-4-({[4-(But-2-ynyloxy)phenyl]sulfonyl}amino)-5-(hydroxyamino)-5-oxopentyl]-4-chlorobenzamide] | –
22 | 11.4 | CC#CCOc1ccc(S(=O)(=O)N[C@H](CCCCNC(=O)OCc2ccccc2)C(=O)NO)cc1 [Example 309, Benzyl(5R)-5-({[4-(but-2-ynyloxy)phenyl]sulfonyl}amino)-6-(hydroxyamino)-6-oxohexylcarbamate] | –
23 | – | CC#CCOc1ccc(S(=O)(=O)NC(CO)C(=O)NO)cc1 (centres unmarked) [Example 98] | % Inhibition at 1 uM (In Vitro Inhibition of TACE): 2.5%

Row | IC50 [1] [nM] | SMILES | also measured
24 | 550 | CC#CCOc1ccc(S(=O)(=O)N[C@H](C(=O)NO)C2CCCCC2)cc1 [Example 72] | –
25 | 11.8 ± 4.6 | CC#CCOc1ccc(S(=O)(=O)N[C@@H](C(=O)NO)C2CCCCC2)cc1 [Example 78] | –
26 | 6.1 | CC#CCOc1ccc(S(=O)(=O)N[C@H](CCCCNC(=O)c2ccc(Cl)cc2)C(=O)NO)cc1 [Example 353, N-[(5R)-5-({[4-(But-2-ynyloxy)phenyl]sulfonyl}amino)-6-(hydroxyamino)-6-oxohexyl]-4-chlorobenzamide] | –
27 | 10.4 | CC#CCOc1ccc(S(=O)(=O)N[C@H](CSC(C)(C)C)C(=O)NO)cc1 [Example 299, (2S)-3-(tert-Butylthio)-2-({[4-(but-2-ynyloxy)phenyl]sulfonyl}amino)-N-hydroxypropanamide] | –
28 | – | CC#CCOc1ccc(S(=O)(=O)NC(Cc2c[nH]c3ccccc23)C(=O)NO)cc1 (centres unmarked) [Example 101] | % Inhibition at 1 uM (In Vitro Inhibition of TACE): 30.2%
29 | 27.9 | CC#CCOc1ccc(S(=O)(=O)N[C@H](Cc2cccc3ccccc23)C(=O)NO)cc1 [Example 310, (2R)-2-({[4-(But-2-ynyloxy)phenyl]sulfonyl}amino)-N-hydroxy-3-(1-naphthyl)propanamide] | –
30 | 6.26 | CC#CCOc1ccc(S(=O)(=O)N[C@H](CCCNC(C)=O)C(=O)NO)cc1 [Example 328, (2R)-5-(Acetylamino)-2-({[4-(but-2-ynyloxy)phenyl]sulfonyl}amino)-N-hydroxypentanamide] | –
31 | 4.7 | CC#CCOc1ccc(S(=O)(=O)N[C@H](CCCC)C(=O)NO)cc1 [Example 312, (2R)-2-({[4-(But-2-ynyloxy)phenyl]sulfonyl}amino)-N-hydroxyhexanamide] | –
32 | 29.4 | CC#CCOc1ccc(S(=O)(=O)N2C[C@@H](O)C[C@@H]2C(=O)NO)cc1 [Example 307, (2R,4S)-1-{[4-(But-2-ynyloxy)phenyl]sulfonyl}-N,4-dihydroxypyrrolidine-2-carboxamide] | –
33 | 5.5 | CC#CCOc1ccc(S(=O)(=O)N[C@@H](C(=O)NO)c2ccccc2)cc1 [Example 327, (2R)-2-({[4-(But-2-ynyloxy)phenyl]sulfonyl}amino)-N-hydroxy-2-phenylethanamide] | –
34 | 120 | CC#CCOc1ccc(S(=O)(=O)N[C@H](C(=O)NO)c2ccccc2)cc1 [Example 95] | –
35 | 10.9 | CC#CCOc1ccc(S(=O)(=O)N[C@H](CCCNC(=N)NS(=O)(=O)c2ccc(C)cc2)C(=O)NO)cc1 [Example 297, (2R)-2-({[4-(2-Butynyloxy)phenyl]sulfonyl}amino)-N-hydroxy-5-[(imino{[(4-methylphenyl)sulfonyl]amino}methyl)amino]pentanamide] | –
36 | – | CC#CCOc1ccc(S(=O)(=O)NC(C(=O)NO)C(C)C)cc1 (centres unmarked) [Example 104] | % Inhibition at 1 uM (In Vitro Inhibition of TACE): 38.5%
37 | 14.1 | CC#CCOc1ccc(S(=O)(=O)N[C@H](CCCCNC(=O)c2c(C)noc2C)C(=O)NO)cc1 [Example 357, N-[(5R)-5-({[4-(But-2-ynyloxy)phenyl]sulfonyl}amino)-6-(hydroxyamino)-6-oxohexyl]-3,5-dimethylisoxazole-4-carboxamide] | –
38 | 11 | CC#CCOc1ccc(S(=O)(=O)N[C@H](CSCNC(C)=O)C(=O)NO)cc1 [Example 300, (2S)-3-{[(Acetylamino)methyl]thio}-2-({[4-(but-2-ynyloxy)phenyl]sulfonyl}amino)-N-hydroxypropanamide] | –
39 | 4 | CC#CCOc1ccc(S(=O)(=O)N[C@H](Cc2ccc(F)cc2)C(=O)NO)cc1 [Example 316, (2R)-2-({[4-(But-2-ynyloxy)phenyl]sulfonyl}amino)-3-(4-fluorophenyl)-N-hydroxypropanamide] | –
40 | 377 | CC#CCOc1ccc(S(=O)(=O)N[C@H](CCCNC(=O)OCCCCCCCC)C(=O)NO)cc1 [Example 371, Octyl(4R)-4-({[4-(but-2-ynyloxy)phenyl]sulfonyl}amino)-5-(hydroxyamino)-5-oxopentylcarbamate] | –
41 | 398 ± 136 | CC#CCOc1ccc(S(=O)(=O)N[C@@H](CCCN=C(N)NS(=O)(=O)c2ccc(C)cc2)C(=O)NO)cc1 [Example 65] | –
42 | – | CC#CCOc1ccc(S(=O)(=O)N[C@H](CCCNC(=O)c2cc(C)oc2C)C(=O)NO)cc1 [Example 337, N-[(4R)-4-({[4-(But-2-ynyloxy)phenyl]sulfonyl}amino)-5-(hydroxyamino)-5-oxopentyl]-2,5-dimethyl-3-furamide] | IC50 [2]: 4.2 nM
43 | – | CC#CCOc1ccc(S(=O)(=O)NC(CSC(C)(C)C)C(=O)NO)cc1 (centres unmarked) [Example 73] | % Inhibition at 1 uM (In Vitro Inhibition of TACE): 79%; IC50 [2]: 451 ± 31 nM
44 | 9.57 | CC#CCOc1ccc(S(=O)(=O)N[C@H](CCCCNC(=O)c2ccc(Br)cc2)C(=O)NO)cc1 [Example 351, 4-Bromo-N-[(5R)-5-({[4-(but-2-ynyloxy)phenyl]sulfonyl}amino)-6-(hydroxyamino)-6-oxohexyl]benzamide] | –
45 | 6.32 | CC#CCOc1ccc(S(=O)(=O)N[C@H](CCCCNC(=O)c2ccc(OC)cc2)C(=O)NO)cc1 [Example 361, N-[(5R)-5-({[4-(But-2-ynyloxy)phenyl]sulfonyl}amino)-6-(hydroxyamino)-6-oxohexyl]-4-methoxybenzamide] | –
46 | – | CC#CCOc1ccc(S(=O)(=O)N[C@@H](CC)C(=O)NO)cc1 [Example 63] | % Inhibition at 1 uM (In Vitro Inhibition of TACE): 47.6%

Reference: US6716833B2, “Acetylenic α-amino acid-based sulfonamide hydroxamic acid tace inhibitors” (priority 1999, dated 2004)
